Structures can show the parent of a compound that is named as a salt.
Assays:
[1] = system: patients with COPD; assay: Double-blind, randomized, positive control trial: FEV1 response (efficacy); assay type: in vivo, human; conditions: Crossover phase, nebulized 4 times per day
Description: (§1) To evaluate the efficacy and safety of the inhalation solution of the present invention, a double-blind, randomized, positive control trial was performed.
(§2) All study medications were administered 4 times per day (ideally every 6 hours) by inhalation using a PARI LC PLUS™ nebulizer and PARI PRONEB® compressor. Concomitant use of bronchodilators was restricted during the trial. Oral and inhaled steroic use was permitted throughout the trial, provided that dosing remained constant.

[2] = system: patients with COPD; assay: Double-blind, randomized, positive control trial: treatment-emergent adverse events (safety/tolerability); conditions: percent of patients; for (%) Patients with A (adverse events): any adverse event
Description: as §1, §2

Compound	Peak FEV1 mean (change from pre-dose to peak FEV1 within 3 hours after dosing) ([1]; Combination vs. Albuterol comparison) [L]	Bronchitis (RESPIRATORY), % [2]	Cramps leg (MUSCULO-SKELETAL), % [2]	Diarrhea (DIGESTIVE), % [2]	Dyspepsia (DIGESTIVE), % [2]	Infection urinary tract (UROGENITAL), % [2]	Lung Disease (RESPIRATORY), % [2]	Nausea (DIGESTIVE), % [2]	Pain (BODY AS A WHOLE), % [2]	Pain chest (BODY AS A WHOLE), % [2]	Pharyngitis (RESPIRATORY), % [2]	Pneumonia (RESPIRATORY), % [2]	(%) Patients with A (adverse events) [2]	Peak FEV1 mean (change from pre-dose to peak FEV1 within 3 hours after dosing) ([1]; Combination vs. Ipratropium comparison) [L]
CC(C)(C)NCC(O)c1ccc(O)c(CO)c1 (stereo not drawn) [Albuterol, α^1-[(tert-butylamino)methyl]-4-hydroxy-m-xylene-α,α′-diol sulfate (2:1)(salt)]	0.313	(1.4) %	(1.1) %	(0.7) %	(0.9) %	(0.4) %	(4.7) %	(0.9) %	(1.1) %	(1.4) %	(3.5) %	(0.9) %	(43.0) %	
CC(C)[N+]1(C)C2CCC1CC(OC(=O)C(CO)c1ccccc1)C2 (racemic) [Ipratropium, 8-azoniabicyclo [3.2.1]-octane, 3-(3, hydroxyl-1-oxo-2-phenylpropoxy)-8methyl-8-(1-methylethyl)-bromide, monohydrate, (endo, syn)-, (±)-]		(1.7) %	(0.8) %	(1.2) %	(1.1) %	(1.2) %	(4.5) %	(0.8) %	(0.5) %	(1.9) %	(3.6) %	(1.1) %	(43.6) %	0.282

— patent US8084461B2 (Dey, L.P., priority 2001, dated 2011)
